Consider two compounds from US7517901B2, “p38 MAP kinase inhibitors and methods for using the same” (Roche Palo Alto LLC, priority 2005, dated 2009).

The term IC50 denotes the concentration needed to halve the response being measured. Broadly, the melting point is the temperature, or range, at which the solid turns liquid.

The target in data set [1] is T1, p38 MAP kinase (Homo sapiens, UniProt Q16539).
T1 construct: made in house; host or cells: E. coli (co-expressed with SEK-1 and MEKK)
The data set can be described thus: p38 (MAP) kinase in vitro assay (transfer of γ-33P from ATP to Myelin Basic Protein). The data set is classed as biochemical. The note with it: phosphorylated recombinant p38 MAP kinase, MBP substrate, γ-33P-ATP, 30° C. The procedure: This example illustrates a p38 (MAP) kinase in vitro assay useful for evaluating the compounds of the invention.
The p38 MAP kinase inhibitory activity of compounds of this invention in vitro was determined by measuring the transfer of the γ-phosphate from γ-^33P-ATP by p-38 kinase to Myelin Basic Protein (MBP), using a minor modification of the method described in Ahn, et al., J. Biol. Chem. 266:4220-4227 (1991).
The phosphorylated form of the recombinant p38 MAP kinase was co-expressed with SEK-1 and MEKK in E. Coli (see, Khokhlatchev, et al., J. Biol. Chem. 272:11057-11062 (1997)) and then purified by affinity chromatography using a Nickel column.
The phosphorylated p38 MAP kinase was diluted in kinase buffer (20 mM 3-(N-morpholino)propanesulfonic acid, pH 7.2, 25 mM β-glycerol phosphate, 5 mM ethylene glycol-bis(beta-aminoethyl ether)-N,N,N′,N′-tetraacetic acid, 1 mM sodium ortho-vanadate, 1 mM dithiothreitol, 40 mM magnesium chloride). Test compound dissolved in DMSO or only DMSO (control) was added and the samples were incubated for 10 min at 30° C. The kinase reaction was initiated by the addition of a substrate cocktail containing MBP and γ-^33P-ATP. […] The phosphorylated MBP was then separated from the residual γ-^33P-ATP using a phosphocellulose membrane (Millipore, Bedford, Mass.) and quantitated using a scintillation counter (Packard, Meriden, Conn.).

T1 sequence (Q16539 whole entry): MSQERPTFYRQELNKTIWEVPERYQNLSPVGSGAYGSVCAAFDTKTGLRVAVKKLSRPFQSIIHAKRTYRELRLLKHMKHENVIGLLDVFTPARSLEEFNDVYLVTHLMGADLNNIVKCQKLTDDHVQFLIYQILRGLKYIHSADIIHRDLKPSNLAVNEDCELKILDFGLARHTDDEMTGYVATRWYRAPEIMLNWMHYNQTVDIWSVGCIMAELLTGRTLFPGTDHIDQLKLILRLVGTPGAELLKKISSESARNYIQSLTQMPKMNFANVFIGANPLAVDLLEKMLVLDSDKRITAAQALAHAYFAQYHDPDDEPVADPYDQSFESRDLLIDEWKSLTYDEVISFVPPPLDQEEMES

Consider `O=S(=O)(Nc1ccc2c(-c3ccccc3Cl)n[nH]c2c1)c1cccc(Cl)c1F` [Compound 46, 3-Chloro-N-[3-(2-chloro-phenyl)-1H-indazol-6-yl]-2-fluoro-benzenesulfonamide], for which the IC50 in data set [1] is around 20 nM.
For `O=S(=O)(Nc1ccc2c(-c3ccccc3Cl)n[nH]c2c1)c1cccc(Cl)c1` [Compound 12, 3-Chloro-N-[3-(2-chloro-phenyl)-1H-indazol-6-yl]-benzenesulfonamide], the melting point was 187 to 189 °C.
